Where two headings read alike, the source gives them in different places.
Key:
Menin-MLL = target: T1, Menin-MLL (Homo sapiens, UniProt O00255); assay: Inhibitory activity against Menin-MLL binding (fluorescence polarization); settings: 150 nM His-Menin, 15 nM FITC-MLL, 25°C for 60 min
T1 construct: His-Menin (M1-L615 end); purchased BIORTUS BP9210
T1 sequence (O00255 1-615 isoform O00255-1): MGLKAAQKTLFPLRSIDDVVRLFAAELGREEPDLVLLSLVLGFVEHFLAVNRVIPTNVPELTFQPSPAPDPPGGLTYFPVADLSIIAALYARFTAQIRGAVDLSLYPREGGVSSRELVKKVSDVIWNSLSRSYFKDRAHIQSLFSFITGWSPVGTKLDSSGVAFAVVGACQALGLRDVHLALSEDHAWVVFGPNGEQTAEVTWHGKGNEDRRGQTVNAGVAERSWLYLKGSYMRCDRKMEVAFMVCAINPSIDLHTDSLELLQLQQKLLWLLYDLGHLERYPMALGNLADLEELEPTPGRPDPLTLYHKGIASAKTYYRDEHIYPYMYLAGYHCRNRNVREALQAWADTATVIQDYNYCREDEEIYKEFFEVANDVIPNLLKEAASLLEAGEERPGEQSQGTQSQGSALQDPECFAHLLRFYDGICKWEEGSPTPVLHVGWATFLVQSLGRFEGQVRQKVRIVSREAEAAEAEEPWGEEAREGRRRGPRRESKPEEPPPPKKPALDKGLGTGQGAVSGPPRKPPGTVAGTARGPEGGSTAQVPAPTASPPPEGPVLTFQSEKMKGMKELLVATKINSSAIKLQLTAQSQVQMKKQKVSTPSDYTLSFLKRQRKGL
In short: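 His-Menin (M1-L615, 150 nM) preincubated with compound 15 min at 25 °C in HEPES pH 7.5, 50 mM NaCl, 1 mM DTT, 0.01% BSA, then 15 nM FITC-MLL4-43 peptide added for 60 min at 25 °C. Fluorescence polarization read; IC50 from 4-parameter logistic fit, duplicates.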

[1] = test system: MOLM-13 (carrying MLL-AF9); assay: Inhibition of proliferation of human tumor cells (Alamar Blue, 7 days), MOLM-13; assay type: cell-based; settings: Homo sapiens, MOLM-13 cells (carrying MLL-AF9), method calls the value GI50
In short: (§1)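 Cells seeded at 4,000/well (MV-4-11, MOLM-13) or 3,000/well (KG-1a) in serum-supplemented IMDM or RPMI-1640, 37°C, 5% CO2, then exposed to 3- or 4-fold compound dilutions in duplicate for 7 days. Alamar Blue fluorescence read; GI50 derived against Day 7 0.1% DMSO (high) and Day 0 (low) controls.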

KG-1a (wild-type MLL) = assay: Inhibition of proliferation of human tumor cells (Alamar Blue, 7 days), KG-1a control cell line; assay type: cell-based; settings: 168 h, KG-1a cells (wild-type MLL, control cell line), method calls the value GI50
Text: Experimental Example 2: Evaluation of Inhibitory Activity of Compounds Against Proliferation of Human Tumor Cells
• Human acute lymphoblastic leukemia cells MV-4-11, purchased from American Type Culture Collection, Catalog Number: CRL-9591; • Human acute myeloid leukemia cells MOLM-13, purchased from COBIOER BIOSCIENCES CO., LTD, Catalog Number: CBP60678; • Human acute myeloid leukemia cells KG-1a, purchased from American Type Culture Collection, Catalog Number: CCL-246.1; • Inverted Microscope, purchased from Olympus Tokyo; • Countess™ Automated Cell Counter, purchased from Invitrogen, Model: C10281; and • Multilabel Reader, purchased from Bio-Tek, Model: Synergy HT.
MV-4-11 cells were cultured in an IMDM medium containing 10% fetal bovine serum, KG-a cells were cultured in an IMDM medium containing 20% fetal bovine serum, or MOLM-13 cells were cultured in an RPMI-1640 medium containing 20% fetal bovine serum, each supplemented with 100 U·mL^-1 penicillin and 100 µg·mL^-1 streptomycin. These cells were cultured at 37°C with 5% CO2. The suspensions of individual cell lines were prepared in their respective media and seeded into 96-well plates at a density of 4,000 cells/well for MV-4-11 and MOLM-13 cells, or 3,000 cells/well for KG-1a cells. On the day of the experiment, a compound stock solution was diluted in a 3-fold or 4-fold gradient using DMSO. Each gradient-diluted stock solution was then further diluted 250-fold with a complete medium to prepare a series of working solutions at different concentrations. Subsequently, 100 µL of working solution (containing a 2-fold concentration series of the test compound) was added to each well, with duplicate wells set up for each concentration.
Seven days after compound addition (on Day 7), an Alamar Blue assay reagent (MCE, HY-111391 / CS-0040317) was added to measure the fluorescence intensity in each well. Wells containing the cells in the growth medium supplemented with 0.1% DMSO (Day 7) served as high-read control wells. The readouts from the wells containing the cells in the growth medium supplemented with 0.1% DMSO on the day of compound addition (Day 0) served as low-reading control well. GraphPad Prism software was used to calculate the concentration required to inhibit 50% of cell proliferation (GI50), which serves as a cell proliferation inhibition activity index.

[2] = test system: MV-4-11 (carrying MLL-AF4); assay: Inhibition of proliferation of human tumor cells (Alamar Blue, 7 days), MV-4-11; assay type: cell-based; settings: Homo sapiens, MV4-11, 168 h, MV-4-11 cells (carrying MLL-AF4), method calls the value GI50
In short: as §1

[3] = fluorescence polarization, read-out: Menin-MLL IC50
[4] = Menin-MLL IC50, fluorescence polarization

| Compound | IC50 (Menin-MLL; [3]) | IC50 ([1]; 168 h) | IC50 (KG-1a (wild-type MLL)) | IC50 [2] | IC50 (Menin-MLL; [4]) | IC50 ([1]; MOLM-13, 168 h) |
| --- | --- | --- | --- | --- | --- | --- |
| COC1CCN(CCC[C@H](C(C)C)N2CC(c3cc(-c4ccc(F)cc4C(=O)N4CCOC[C@H]4C)c4cnn(C)c4c3)C2)CC1 [Example 181-2, 4-{4-fluoro-2-[(3R)-3-methylmorpholin-4-carbonyl]phenyl}-6-{1-[(3R)-6-(4-methoxypiperidin-1-yl)-2-methylhexan-3-yl]azacyclobutan-3-yl}-1-methyl-1H-indazole] | 0.0135 µM | 0.039 µM | – | 0.0079 µM | – | – |
| Cc1nc(F)c2c(-c3ccc(F)cc3C(=O)N3[C@H](C)COC[C@H]3C)cc(C3CN(C[C@H]4CC[C@H](n5cncn5)CC4)C3)cn12 [Example 213, (3R,5R)-4-{5-fluoro-2-[1-fluoro-3-methyl-6-(1-{[(1r,4r)-4-(1H-1,2,4-triazol-1-yl)cyclohexyl]methyl}azacyclobutan-3-yl)imidazo[1,5-a]pyridin-8yl]benzoyl}-3,5-dimethylmorpholine] | – | – | – | 0.013 µM | 0.011 µM | 0.029 µM |
| CCN(C(=O)c1cc(F)ccc1-c1cc(C2CN(C[C@H]3CC[C@H](NS(=O)(=O)CC)CC3)C2)cn2c(C)ncc12)C(C)C [Example 120, N-ethyl-5-fluoro-2-[3-methyl-6-(1-{[(1r,4r)-4-ethanesulfonamidocyclohexyl]methyl}-azacyclobutan-3-yl)imidazo[1,5-a]pyridin-8-yl]-N-(isopropyl)benzamide] | – | – | – | 0.0085 µM | 0.0085 µM | 0.0295 µM |
| Cc1cncc2c(-c3ccc(F)cc3C(=O)N3[C@H](C)COC[C@H]3C)cc(CC3CN(CC4CCOCC4)C3)n12 [Example 230] | 0.002 µM | – | – | 0.001 µM | – | 0.0029 µM |
| C=C1C[C@@H]2CC[C@H]1[C@@H](C(=O)N1CC(c3cc(-c4ccc(F)cc4C(=O)N(CC(F)F)C(C)C)c4cnc(C)n4c3)C1)N2 [Example 121, N-(2,2-difluoroethyl)-5-fluoro-2-(3-methyl-6-{1-[(1S,3S,4R)-5-methylene-2-azabicyclo[2.2.2]octan-3-carbonyl]azacyclobutan-3-yl}imidazo[1,5-a]pyridin-8-yl)-N-(isopropyl)benzamide] | 0.0235 µM | 0.128 µM | – | 0.042 µM | – | – |
| COC(=O)N1CCC(CN2CC(c3cc(-c4ccc(F)cc4C(=O)N4CCOC[C@H]4C)c4c(F)nc(C)n4c3)C2)CC1 [Example 259] | 0.059 µM | 0.11 µM | – | 0.055 µM | – | – |
| Cc1nc(F)c2c(-c3ccc(F)cc3C(=O)N3[C@H](C)COC[C@H]3C)cc(C3CN([C@H](C)C4CCOCC4)C3)cn12 [Example 209-1, (3R,5R)-4-[5-fluoro-2-(1-fluoro-3-methyl-6-{1-[(1R)-1-(oxacyclohexan-4-yl)ethyl]azacyclobutan-3-yl}imidazo[1,5-a]pyridin-8-yl)benzoyl]-3,5-dimethylmorpholine] | 0.0295 µM | 0.021 µM | – | 0.012 µM | – | – |
| CCS(=O)(=O)N[C@@H]1CC[C@@H](CN2CC(c3cc(-c4ccc(F)cc4C(=O)N(CC(F)F)C(C)C)c4c(F)nc(C)n4c3)C2)OC1 [Example 151] | 0.0155 µM | 0.061 µM | – | 0.04 µM | – | – |
| Cc1nc(F)c2c(-c3ccc(F)cc3C(=O)N3CCOC[C@H]3C)cc(C3CN([C@@H](C)C4CCOCC4)C3)cn12 [Example 238-2, (3R)-4-[5-fluoro-2-(1-fluoro-3-methyl-6-{1-[(1S)-1-(oxacyclohexan-4-yl)ethyl]azacyclobutan-3-yl}imidazo[1,5-a]pyridin-8-yl)benzoyl]-3-methylmorpholine] | 0.018 µM | 0.027 µM | – | 0.011 µM | – | – |
| Cc1nc(F)c2c(-c3ccc(F)cc3C(=O)N3CCOC[C@H]3C)cc(C3CN(CC4CCN(C(=O)CC(C)C)CC4)C3)cn12 [Example 271] | 0.027 µM | 0.033 µM | – | 0.012 µM | – | – |

Further lines, with some results ahead:

| IC50 (Menin-MLL; [3]) | IC50 ([1]; 168 h) | IC50 (KG-1a (wild-type MLL)) | IC50 [2] | Compound | IC50 (Menin-MLL; [4]) | IC50 ([1]; MOLM-13, 168 h) |
| --- | --- | --- | --- | --- | --- | --- |
| 0.003 µM | 0.022 µM | > 20 µM | – | CCN(C(=O)c1cc(F)ccc1-c1cc(C2CN([C@H](CCCO)C(C)C)C2)cn2c(C)ncc12)C(C)C [Example 396, N-ethyl-5-fluoro-2-(6-{1-[(3R)-6-hydroxyl-2-methylhexan-3-yl]azacyclobutan-3-yl}-3-methylimidazo[1,5-a]pyridin-8-yl)-N-(isopropyl)benzamide] | – | – |
| 0.009 µM | 0.0036 µM | – | 0.00095 µM | CNCCCC(C(C)C)N1CC(c2cc(-c3ccc(F)cc3C(=O)N(CC(F)F)C(C)C)c3cnc(C)n3c2)C1 (stereo not drawn) [Example 148] | – | – |
| 0.003 µM | 0.041 µM | – | 0.0071 µM | CC(=O)N1CCC(CN2CC(Cc3cc(-c4ccc(F)cc4C(=O)N(CC(F)F)C(C)C)c4cncc(C)n34)C2)CC1 [Example 210] | – | – |
| 0.003 µM | 0.0057 µM | – | 0.0022 µM | Cc1nc(F)c2c(-c3ccc(F)cc3C(=O)N3[C@H](C)COC[C@H]3C)cc(C3CN(CC4CCN(CC5(O)CCOCC5)CC4)C3)cn12 [Example 211, 4-[(4-{[3-(8-{2-[(3R,5R)-3,5-dimethylmorpholin-4-carbonyl]-4-fluorophenyl}-1-fluoro-3-methylimidazo[1,5-a]pyridin-6-yl)azacyclobutan-1-yl]methyl}piperidin-1-yl)methyl]oxacyclohexan-4-ol] | – | – |
| 0.0125 µM | 0.031 µM | – | 0.016 µM | Cc1ncc2c(-c3ccc(F)cc3C(=O)N3[C@H](C)COC[C@H]3C)cc(C3CN(CC4CCOCC4)C3)cn12 [Example 212, (3R,5R)-4-[5-fluoro-2-(3-methyl-6-{1-[(oxacyclohexan-4-yl)methyl]azacyclobutan-3-yl}imidazo[1,5-a]pyridin-8-yl)benzoyl]-3,5-dimethylmorpholine] | – | – |
| 0.004 µM | 0.024 µM | – | 0.0052 µM | CCNC(=O)N1CCC(CN2CC(c3cc(-c4ccc(F)cc4C(=O)N(CC)C(C)C)c4cnc(C)n4c3)C2)CC1 [Example 290] | – | – |
| 0.012 µM | 0.014 µM | – | 0.012 µM | Cc1nc(F)c2c(-c3ccc(F)cc3C(=O)N3[C@H](C)COC[C@H]3C)cc(C3CN(CC4CCN(C(=O)C(F)F)CC4)C3)cn12 [Example 219] | – | – |
| 0.006 µM | 0.055 µM | – | 0.015 µM | CCN(C(=O)c1cc(F)ccc1-c1cc(C2CN(C(C)C3CCN(C(C)=O)CC3)C2)cn2c(C)nc(F)c12)C(C)C (stereo not drawn) [Example 288] | – | – |
| 0.006 µM | 0.0074 µM | – | 0.0033 µM | CCNC(=O)N1CCC([C@H](C)N2CC(c3cc(-c4ccc(F)cc4C(=O)N4CCOC[C@H]4C)c4c(F)nc(C)n4c3)C2)CC1 [Example 279] | – | – |

Reference: patent EP4782453A1 (Beyang Therapeutics Co., Ltd., priority 2023, dated 2025)
